Test results from PubChem BioAssay (NCI).
“And” between values parts separate entries of the source, which are not always exact repeats. Equal entries are not always repeated.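 48-hour exposure; five concentrations; linearly interpolated endpoints. GI50 is the concentration that inhibits growth by half. TGI is the concentration that stops growth completely.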

What was measured:
Assay in all cases: growth of human tumour cells (NCI), 48 h
[1] = test system: 786-0 renal
[2] = test system: A498 renal
[3] = test system: A549 NSCLC
[4] = test system: ACHN renal
[5] = test system: CAKI-1 renal
[6] = test system: CCRF-CEM leukemia
[7] = test system: COLO 205 colon
[8] = test system: DLD-1 colon
[9] = test system: DMS 114 small cell lung
[10] = test system: DMS 273 small cell lung
[11] = test system: EKVX NSCLC
[12] = test system: HCC-2998 colon
[13] = test system: HCT-116 colon
[14] = test system: HCT-15 colon
[15] = test system: HL-60(TB) leukemia
[16] = test system: HOP-18 NSCLC
[17] = test system: HOP-62 NSCLC
[18] = test system: HOP-92 NSCLC
[19] = test system: HT29 colon
[20] = test system: IGROV1 ovarian
[21] = test system: K-562 leukemia
[22] = test system: KM12 colon
[23] = test system: KM20L2 colon
[24] = test system: LOX IMVI melanoma
[25] = test system: LXFL 529 NSCLC
[26] = test system: M14 melanoma
[27] = test system: M19-MEL melanoma
[28] = test system: MALME-3M melanoma
[29] = test system: MOLT-4 leukemia
[30] = test system: NCI-H226 lung
[31] = test system: NCI-H23 lung
[32] = test system: NCI-H460 lung
[33] = test system: NCI-H522 lung
[34] = test system: OVCAR-3 ovarian
[35] = test system: OVCAR-4 ovarian
[36] = test system: OVCAR-5 ovarian
[37] = test system: OVCAR-8 ovarian
[38] = test system: RPMI-8226 leukemia
[39] = test system: RXF 393 renal
[40] = test system: SF-268 CNS
[41] = test system: SF-295 CNS
[42] = test system: SF-539 CNS
[43] = test system: SK-MEL-2 melanoma
[44] = test system: SK-MEL-28 melanoma
[45] = test system: SK-MEL-5 melanoma
[46] = test system: SK-OV-3 ovarian
[47] = test system: SN12C renal
[48] = test system: SNB-19 CNS
[49] = test system: SNB-75 CNS
[50] = test system: SNB-78 CNS
[51] = test system: SR leukemia
[52] = test system: SW-620 colon
[53] = test system: TK-10 renal
[54] = test system: U251 CNS
[55] = test system: UACC-257 melanoma
[56] = test system: UACC-62 melanoma
[57] = test system: UO-31 renal
[58] = test system: XF 498 CNS
[59] = test system: BT-549 breast
[60] = test system: DU-145 prostate
[61] = test system: HS 578T breast
[62] = test system: MCF7 breast
[63] = test system: MDA-MB-231 breast
[64] = test system: MDA-MB-435
[65] = test system: MDA-N
[66] = test system: PC-3 prostate
[67] = test system: T-47D breast

`Cc1nc(C)c(C(=O)Nc2cccc3c2C(=O)NC3=O)cc1C(=O)Nc1cccc2c1C(=O)NC2=O` was tested, and the TGI [1] was greater than 100 µM, the TGI [2] was greater than 100 µM and the TGI [3] was greater than 100 µM. It also gave a TGI [4] greater than 100 µM, a TGI [5] greater than 100 µM and a TGI [6] greater than 100 µM. The TGI [7] was greater than 100 µM, the TGI [8] was greater than 100 µM and the TGI [9] was greater than 100 µM. For the same molecule, the TGI [10] was greater than 100 µM, the TGI [11] was greater than 100 µM and the TGI [12] was greater than 100 µM. The TGI [13] was greater than 100 µM, the TGI [14] was greater than 100 µM and the TGI [15] was greater than 100 µM. The TGI [16] was greater than 100 µM, the TGI [17] was greater than 100 µM and the TGI [18] was greater than 100 µM. The TGI [19] was greater than 100 µM, the TGI [20] was greater than 100 µM and the TGI [21] was greater than 100000 nM. The TGI [22] was greater than 100 µM, the TGI [23] was greater than 100 µM and the TGI [24] was greater than 100 µM. The TGI [25] was greater than 100 µM, the TGI [26] was greater than 100 µM and the TGI [27] was greater than 100 µM. The TGI [28] was greater than 100 µM, the TGI [29] was greater than 100 µM and the TGI [30] was greater than 100 µM. It also gave a TGI [31] greater than 100 µM, a TGI [32] greater than 100 µM and a TGI [33] greater than 100000 nM. For the same molecule, the TGI [34] was greater than 100 µM, the TGI [35] was greater than 100 µM and the TGI [36] was greater than 100 µM. It also gave a TGI [37] greater than 100 µM, a TGI [38] greater than 100 µM and a TGI [39] greater than 100 µM. The TGI [40] was greater than 100 µM, the TGI [41] was greater than 100 µM and the TGI [42] was greater than 100 µM. The TGI [43] was greater than 100 µM, the TGI [44] was greater than 100 µM and the TGI [45] was greater than 100 µM. The TGI [46] was greater than 100 µM, the TGI [47] was greater than 100 µM and the TGI [48] was greater than 100 µM. The TGI [49] was greater than 100 µM, the TGI [50] was greater than 100 µM and the TGI [51] was greater than 100 µM. It also gave a TGI [52] greater than 100 µM, a TGI [53] greater than 100 µM and a TGI [54] greater than 100 µM. The TGI [55] was greater than 100 µM, the TGI [56] was greater than 100 µM and the TGI [57] was greater than 100 µM. It also gave a TGI [58] greater than 100 µM.

Molecule `CN(C)C[C@H]1CC[C@@H](CN(C)C)C1=O` has a TGI [1] of 12.8 µM, a TGI [2] greater than 50 µM and a TGI [3] greater than 50 µM. It also gave a TGI [4] of 15.1 µM, a TGI [59] of 14.1 µM and a GI50 [5] of 297 nM. The GI50 [6] was 1230 nM, the TGI [6] was 5.02 µM and the GI50 [7] was 759 nM. It also gave a TGI [7] of 11.3 µM, a TGI [8] of 11.5 µM and a TGI [9] of 17.5 µM. For the same molecule, the TGI [10] was 16.7 µM, the TGI [60] was greater than 50 µM and the TGI [11] was 24.3 µM. It also gave a TGI [12] greater than 37.5 µM, a TGI [13] of 15.6 µM and a TGI [14] of 11 µM. For the same molecule, the TGI [15] was 4.1 µM, the TGI [16] was 14.8 µM and the TGI [17] was greater than 50 µM. It also gave a TGI [18] of 20.5 µM, a TGI [61] of 36.6 µM and a TGI [19] of 21.1 µM. It also gave a TGI [20] of 31.6 µM, a TGI [21] of 1430 nM and a TGI [22] of 27.5 µM. For the same molecule, the TGI [23] was 25.5 µM, the TGI [24] was 14.2 µM and the TGI [25] was 12.5 µM. For the same molecule, the TGI [26] was 16.7 µM, the TGI [27] was 17 µM and the TGI [28] was 7.25 µM. For the same molecule, the TGI [62] was 6.19 µM, the TGI [63] was 17.3 µM and the TGI [64] was 19.6 µM. The TGI [65] was 16.1 µM, the TGI [29] was 4.69 µM and the TGI [30] was 32.3 µM. It also gave a TGI [31] of 18.4 µM, a TGI [32] of 37.8 µM and a GI50 [33] of 269 nM. The TGI [33] was 686 nM and 1180 nM, the TGI [34] was 16.6 µM and the TGI [35] was 16.3 µM. The TGI [36] was 16.3 µM, the TGI [37] was 17.1 µM and the TGI [66] was 15.7 µM. The GI50 [38] was 1170 nM, the TGI [38] was greater than 12.9 µM and the TGI [39] was 16.8 µM. It also gave a TGI [40] of 25.1 µM, a TGI [41] greater than 50 µM and a TGI [42] of 21.4 µM. For the same molecule, the TGI [43] was 15.4 µM, the TGI [44] was 12.2 µM and the TGI [45] was 23.6 µM. It also gave a TGI [46] greater than 50 µM, a TGI [47] of 15.4 µM and a TGI [48] greater than 50 µM. The TGI [49] was greater than 28.7 µM, the TGI [50] was 23.3 µM and the TGI [51] was greater than 50 µM. For the same molecule, the TGI [52] was 5.55 µM, the TGI [67] was 23.6 µM and the TGI [53] was 15 µM. The TGI [54] was greater than 40.4 µM, the TGI [55] was 16 µM and the TGI [56] was 16.6 µM. For the same molecule, the TGI [57] was 23.1 µM and the TGI [58] was 15.1 µM.
